# Results published in ChEMBL document CHEMBL3351793, “Orally bioavailable factor Xa inhibitors containing alpha-substituted gem-dimethyl P4 moieties” (Bioorg Med Chem Lett, 2014).
# Experiments:
# Coagulation factor X = Coagulation factor X (Homo sapiens, UniProt P00742); experiment: Inhibition of purified human factor Xa
# [1] = Apparent permeability from apical to basolateral side of the human Caco2 cells; format: ADME, cell-based; conditions: caco-2
# [2] = Clearance in dog at 0.5 mg/kg, iv and 0.2 mg/kg, po administered as cassette dosing; format: ADME, organism-based, Canis lupus familiaris; conditions: in vivo
# [3] = Volume of distribution at steady state in dog at 0.5 mg/kg, iv and 0.2 mg/kg, po administered as cassette dosing; format: ADME, organism-based, Canis lupus familiaris; conditions: in vivo, read-out: Vdss
# [4] = Half life in dog at 0.2 mg/kg, po administered as cassette dosing; format: ADME, organism-based, Canis lupus familiaris; set-up: dose 0.2 mg/kg, route oral; conditions: in vivo
# [5] = Oral bioavailability in dog at 0.2 mg/kg administered as cassette dosing; format: ADME, organism-based, Canis lupus familiaris; conditions: in vivo
# Plasma = experiment: Anticoagulant activity in human plasma assessed as concentration required to double prothrombin time; format: functional
# Trypsin = Trypsin (Homo sapiens, UniProt P07477+P07478+P35030); experiment: Inhibition of human trypsin; format: protein assay
# Prothrombin = Prothrombin (Homo sapiens, UniProt P00734); experiment: Inhibition of human thrombin
# Plasma kallikrein = Plasma kallikrein (Homo sapiens, UniProt P03952); experiment: Inhibition of human plasma kallikrein
# [6] = Inhibition of human chymotrypsin
# [7] = biological target: Vitamin K-dependent protein C (Homo sapiens, UniProt P04070); experiment: Inhibition of human activated protein C
# Coagulation factor IX = Coagulation factor IX (Homo sapiens, UniProt P00740); experiment: Inhibition of human factor 9a
# [8] = Inhibition of human factor 7a
# Coagulation factor XI = Coagulation factor XI (Homo sapiens, UniProt P03951); experiment: Inhibition of human factor 11a
# [9] = biological target: Urokinase-type plasminogen activator (Homo sapiens, UniProt P00749); experiment: Inhibition of human urokinase
# [10] = biological target: Tissue-type plasminogen activator (Homo sapiens, UniProt P00750); experiment: Inhibition of human tissue plasminogen activator
# Sequence of Tissue-type plasminogen activator (P00750 whole entry): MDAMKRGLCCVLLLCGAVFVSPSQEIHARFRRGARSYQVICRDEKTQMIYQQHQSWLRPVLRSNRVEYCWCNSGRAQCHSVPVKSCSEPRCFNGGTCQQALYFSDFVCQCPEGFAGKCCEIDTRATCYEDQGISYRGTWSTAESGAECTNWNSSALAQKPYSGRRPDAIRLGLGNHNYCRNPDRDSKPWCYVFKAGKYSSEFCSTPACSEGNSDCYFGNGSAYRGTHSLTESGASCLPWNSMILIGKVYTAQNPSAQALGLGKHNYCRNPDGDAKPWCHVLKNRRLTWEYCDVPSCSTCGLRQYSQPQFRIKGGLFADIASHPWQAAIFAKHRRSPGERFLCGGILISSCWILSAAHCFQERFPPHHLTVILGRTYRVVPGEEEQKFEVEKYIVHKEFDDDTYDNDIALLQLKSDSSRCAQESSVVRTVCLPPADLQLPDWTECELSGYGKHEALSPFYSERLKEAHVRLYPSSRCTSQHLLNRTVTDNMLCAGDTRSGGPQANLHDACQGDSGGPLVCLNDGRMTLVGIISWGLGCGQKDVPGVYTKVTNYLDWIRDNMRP
# Sequence of Coagulation factor X (P00742 41-179 limits assumed): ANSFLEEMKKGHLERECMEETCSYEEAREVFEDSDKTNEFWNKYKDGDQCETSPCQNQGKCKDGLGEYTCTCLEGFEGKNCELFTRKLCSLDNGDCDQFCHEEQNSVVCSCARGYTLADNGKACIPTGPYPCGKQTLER
# Sequence of Coagulation factor X (P00742 235-488 limits assumed): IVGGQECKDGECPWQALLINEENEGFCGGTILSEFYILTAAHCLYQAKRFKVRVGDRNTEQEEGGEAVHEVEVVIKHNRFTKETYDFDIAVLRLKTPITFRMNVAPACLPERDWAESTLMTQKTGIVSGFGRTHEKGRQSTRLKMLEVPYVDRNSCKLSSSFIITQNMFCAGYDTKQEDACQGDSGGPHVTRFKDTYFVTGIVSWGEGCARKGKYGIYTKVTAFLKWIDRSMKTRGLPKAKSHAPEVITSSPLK
# Sequence of Coagulation factor XI (P03951 19-387 limits assumed): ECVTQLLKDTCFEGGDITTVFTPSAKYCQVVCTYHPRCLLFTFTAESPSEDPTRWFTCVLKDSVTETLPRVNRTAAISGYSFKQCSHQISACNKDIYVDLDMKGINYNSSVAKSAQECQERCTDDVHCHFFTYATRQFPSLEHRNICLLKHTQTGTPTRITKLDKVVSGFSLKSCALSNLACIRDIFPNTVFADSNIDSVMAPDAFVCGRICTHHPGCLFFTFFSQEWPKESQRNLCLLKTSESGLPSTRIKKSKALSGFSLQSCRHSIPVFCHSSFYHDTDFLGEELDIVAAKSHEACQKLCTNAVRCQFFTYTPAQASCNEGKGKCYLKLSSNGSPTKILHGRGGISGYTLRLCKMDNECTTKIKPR
# Sequence of Coagulation factor XI (P03951 388-625 limits assumed): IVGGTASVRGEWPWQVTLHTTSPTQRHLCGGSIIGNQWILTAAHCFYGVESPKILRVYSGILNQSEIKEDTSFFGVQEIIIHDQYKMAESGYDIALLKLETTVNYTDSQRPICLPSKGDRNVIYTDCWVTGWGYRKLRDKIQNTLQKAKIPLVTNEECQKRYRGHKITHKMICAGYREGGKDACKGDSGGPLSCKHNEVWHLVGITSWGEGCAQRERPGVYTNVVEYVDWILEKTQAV
# Sequence of Coagulation factor IX (P00740 47-191 limits assumed): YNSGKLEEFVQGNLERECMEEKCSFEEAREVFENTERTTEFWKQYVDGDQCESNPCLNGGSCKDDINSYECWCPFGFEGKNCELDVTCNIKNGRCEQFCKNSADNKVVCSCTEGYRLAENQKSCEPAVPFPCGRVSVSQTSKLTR
# Sequence of Coagulation factor IX (P00740 227-461 limits assumed): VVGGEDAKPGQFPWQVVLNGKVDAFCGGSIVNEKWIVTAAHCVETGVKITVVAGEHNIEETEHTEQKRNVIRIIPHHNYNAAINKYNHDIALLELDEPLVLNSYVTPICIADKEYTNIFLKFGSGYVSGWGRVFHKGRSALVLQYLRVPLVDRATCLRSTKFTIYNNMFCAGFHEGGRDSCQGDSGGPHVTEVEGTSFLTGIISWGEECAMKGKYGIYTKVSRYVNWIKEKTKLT
# Sequence of Vitamin K-dependent protein C (P04070 43-197 limits assumed): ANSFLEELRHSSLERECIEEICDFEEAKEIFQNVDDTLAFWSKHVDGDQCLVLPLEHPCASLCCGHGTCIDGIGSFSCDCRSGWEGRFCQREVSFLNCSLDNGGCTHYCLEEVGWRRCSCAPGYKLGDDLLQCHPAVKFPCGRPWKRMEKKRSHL
# Sequence of Vitamin K-dependent protein C (P04070 212-461 limits assumed): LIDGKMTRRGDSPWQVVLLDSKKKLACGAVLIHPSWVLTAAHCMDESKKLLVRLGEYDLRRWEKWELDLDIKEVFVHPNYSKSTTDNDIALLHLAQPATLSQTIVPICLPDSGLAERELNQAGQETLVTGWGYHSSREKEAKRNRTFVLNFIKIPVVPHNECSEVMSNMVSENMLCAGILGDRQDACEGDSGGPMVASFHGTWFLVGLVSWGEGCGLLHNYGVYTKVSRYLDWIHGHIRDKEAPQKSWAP
# Sequence of Plasma kallikrein (P03952 20-390 limits assumed): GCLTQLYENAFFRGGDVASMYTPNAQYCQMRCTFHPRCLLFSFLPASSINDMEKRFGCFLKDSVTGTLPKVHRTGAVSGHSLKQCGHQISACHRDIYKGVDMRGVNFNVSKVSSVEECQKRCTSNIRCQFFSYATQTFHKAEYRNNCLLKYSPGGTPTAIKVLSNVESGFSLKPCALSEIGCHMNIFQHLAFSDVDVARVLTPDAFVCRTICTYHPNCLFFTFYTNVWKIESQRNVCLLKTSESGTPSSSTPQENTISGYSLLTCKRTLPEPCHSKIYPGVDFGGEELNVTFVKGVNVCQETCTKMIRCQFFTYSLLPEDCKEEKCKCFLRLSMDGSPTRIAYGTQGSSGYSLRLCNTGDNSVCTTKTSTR
# Sequence of Plasma kallikrein (P03952 391-638 limits assumed): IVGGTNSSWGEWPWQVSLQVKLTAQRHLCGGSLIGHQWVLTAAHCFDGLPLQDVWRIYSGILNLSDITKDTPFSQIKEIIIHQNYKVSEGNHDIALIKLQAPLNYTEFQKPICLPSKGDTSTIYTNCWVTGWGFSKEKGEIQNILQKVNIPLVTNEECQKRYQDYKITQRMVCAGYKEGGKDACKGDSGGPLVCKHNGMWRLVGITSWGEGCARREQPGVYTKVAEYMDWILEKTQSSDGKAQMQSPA
Structure (SMILES),Ki (Coagulation factor X) [nM],Papp [1] [×10⁻⁶ cm/s],clearance [2] [mL/min/kg],Vd [3] [L/kg],half-life [4] [h],bioavailability [5] [%],Activity (Plasma) [µM],also measured
COc1ccc(-n2nc(C(N)=O)c3c2C(=O)N(c2ccc(C(C)(C)CN)cc2)CC3)cc1,0.15,0.7,56,11.8,3.33,44,0.69,–
COc1ccc(-n2nc(S(C)(=O)=O)c3c2C(=O)N(c2ccc(C(C)(C)CN4CCCC4)cc2)CC3)cc1,0.24,4.3,36.7,5.5,1.4,10,0.92,–
COc1ccc(-n2nc(C(N)=O)c3c2C(=O)N(c2ccc(N4CCCCC4=O)cc2)CC3)cc1 [APIXABAN],–,–,0.333,0.2,–,–,–,–
COc1ccc(-n2nc(C(N)=O)c3c2C(=O)N(c2ccc(C(C)(C)N(C)C)cc2)CC3)cc1,0.2,1.1,–,–,–,–,0.96,–
COc1ccc(-n2nc(C(N)=O)c3c2C(=O)N(c2ccc(C(C)(C)CN(C)C)cc2)CC3)cc1,0.07,5.9,84,6.57,1.04,41,0.45,–
COc1ccc(-n2nc(C(N)=O)c3c2C(=O)N(c2ccc(C(C)(C)CN4CCCC4)cc2)CC3)cc1,0.05,5.6,–,–,–,–,0.73,–
COc1ccc(-n2nc(C(N)=O)c3c2C(=O)N(c2ccc(C(C)(C)CN4CCCCC4=O)cc2)CC3)cc1,1.5,8.3,–,–,–,–,7.4,–
COc1ccc(-n2nc(C(N)=O)c3c2C(=O)N(c2ccc(C(C)(C)C#N)cc2)CC3)cc1,1.22,18,–,–,–,–,3.4,–
COc1ccc(-n2nc(C(N)=O)c3c2C(=O)N(c2ccc(C(C)(C)CNC4CC4)cc2)CC3)cc1,0.05,2.8,–,–,–,–,0.68,–
COc1ccc(-n2nc(C(N)=O)c3c2C(=O)N(c2ccc(C(C)(C)N4CCCC4)cc2)CC3)cc1,0.07,1.7,127,12,–,–,0.81,–
COc1ccc(-n2nc(C(N)=O)c3c2C(=O)N(c2ccc(C(C)(C)S(C)(=O)=O)cc2)CC3)cc1,0.48,1,5.33,0.51,1.7,79,3.9,–
COc1ccc(-n2nc(S(C)(=O)=O)c3c2C(=O)N(c2ccc(C(C)(C)CN(C)C)cc2)CC3)cc1,0.11,4.1,64.3,7.3,1.86,34,0.67,–
COc1ccc(-n2nc(S(C)(=O)=O)c3c2C(=O)N(c2ccc(C(C)(C)CN4CCOCC4)cc2)CC3)cc1,0.32,17,21.3,10.1,4.18,13,3.7,–
COc1ccc(-n2nc(C(N)=O)c3c2C(=O)N(c2ccc(C(C)(C)CO)cc2)CC3)cc1,0.66,5.8,16.3,3.02,4.95,50,3.8,Ki (Trypsin): > 15000 nM; Ki (Prothrombin): 2580 nM; Ki (Plasma kallikrein): > 11000 nM; Ki [6]: > 40000 nM; Ki [7]: > 37600 nM; Ki (Coagulation factor IX): > 15000 nM; Ki [8]: > 15000 nM; Ki (Coagulation factor XI): > 15000 nM; Ki [9]: > 13000 nM; Ki [10]: > 43000 nM
COc1ccc(-n2nc(S(C)(=O)=O)c3c2C(=O)N(c2ccc(C(C)(C)CO)cc2)CC3)cc1,1.01,3.6,–,–,–,–,3.9,–
COc1ccc(-n2nc(C(N)=O)c3c2C(=O)N(c2ccc(C(C)(C)CN4CCOCC4)cc2)CC3)cc1,0.06,17,29.3,5.01,2.8,10,3.8,–
COc1ccc(-n2nc(C(N)=O)c3c2C(=O)N(c2ccc(C(C)(C)O)cc2)CC3)cc1,9.27,–,–,–,–,–,–,–
